Experimental data from patent publication US8563559B2 (Rigel Pharmaceuticals, Inc., priority 2006, dated 2013).

molecular target: T1, Axl (Homo sapiens, UniProt P30530); test: Phospho-AKT in-cell Western assay (inhibition of Axl activity); assay type: cell-based; details: Table 1, formula (Ia); Hela cells, Axl antibody cross-linking stimulation, phospho-Akt chemiluminescence normalized to relative cell number
T1 construct: endogenous in cells; host or cells: HeLa
T1 sequence (P30530 26-894): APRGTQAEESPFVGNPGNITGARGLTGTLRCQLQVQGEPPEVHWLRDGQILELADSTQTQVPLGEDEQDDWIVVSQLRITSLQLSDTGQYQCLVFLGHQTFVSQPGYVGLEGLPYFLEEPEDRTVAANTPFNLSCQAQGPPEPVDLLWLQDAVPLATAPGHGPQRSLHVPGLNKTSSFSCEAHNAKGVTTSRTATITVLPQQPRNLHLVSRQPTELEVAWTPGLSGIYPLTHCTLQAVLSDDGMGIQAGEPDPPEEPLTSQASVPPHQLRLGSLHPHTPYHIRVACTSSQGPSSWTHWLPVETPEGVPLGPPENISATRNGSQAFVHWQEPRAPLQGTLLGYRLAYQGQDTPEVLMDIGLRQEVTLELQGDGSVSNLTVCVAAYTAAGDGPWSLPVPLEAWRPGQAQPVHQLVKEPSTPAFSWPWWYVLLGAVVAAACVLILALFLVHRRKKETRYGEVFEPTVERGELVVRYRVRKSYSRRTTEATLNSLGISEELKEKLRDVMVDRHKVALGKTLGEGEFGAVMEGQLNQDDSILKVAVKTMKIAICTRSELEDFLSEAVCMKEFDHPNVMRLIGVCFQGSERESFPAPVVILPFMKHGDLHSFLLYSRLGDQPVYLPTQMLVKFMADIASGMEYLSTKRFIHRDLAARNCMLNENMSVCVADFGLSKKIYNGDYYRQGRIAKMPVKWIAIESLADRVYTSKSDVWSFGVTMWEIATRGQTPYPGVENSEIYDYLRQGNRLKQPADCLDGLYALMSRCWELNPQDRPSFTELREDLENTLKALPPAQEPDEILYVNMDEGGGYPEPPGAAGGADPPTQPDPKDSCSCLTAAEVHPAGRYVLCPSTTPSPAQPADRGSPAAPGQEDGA
Procedure: The compounds of the invention were tested in the following assay for their ability to inhibit Axl activity.
Phospho-AKT in-Cell Western Assay
• Cell culture plate: 96 well assay plate (Corning 3610), white, clear bottom, tissue-culture treated. • Cells: Hela cells. • Starvation medium: For Axl stimulation: 0.5% FCS (fetal calf serum) in DMEM, plus Axl/Fc (extracellular domain of AXL fused to immunoglobulin Fc region) (R&D, 154-AL) 500 ng/mL. • For EGF (epidermal growth factor) stimulation: 0.5% FCS in DMEM (Dulbecco's modified Eagles medium). • Poly-L-Lysine 0.01% solution (the working solution): 10 μg/ml, dilute In PBS (phosphate buffered saline). • Axl antibody cross-linking: • 1st: Mouse anti-Axl (R&D, MAB154). • 2nd: Biotin-SP-conjugated AffiniPure goat anti-mouse IgG (H+L) (Jackson ImmunoResearch #115-065-003). • Fixing buffer: 4% formaldehyde in PBS. • Wash buffer: 0.1% TritonX-100 in PBS. • Quenching buffer: 3% H2O2, 0.1% Azide in wash buffer, Azide and hydrogen peroxide 1(H2O2) are added fresh. • Blocking buffer: 5% BSA in TBST (tris buffered saline plus 0.1% Tween 20). • Primary antibody: Rabbit anti-human Phospho-Akt antibody (Cell Signaling 9271): 1×250 diluted in blocking buffer. • Secondary antibody: HRP (horse radish peroxidase)-conjugated Goat anti-Rabbit secondary, stock solution: Jackson ImmunoResearch (Goat anti-Rabbit HRP, #111-035-144) 1:1 diluted in glycerol, store at −20° C. The working solution: 1×2000 dilution of stock in blocking buffer. • Chemiluminescent working solution (Pierce, 37030): SuperSignal ELISA (enzyme linked immunosorbant assay) Pico Chemiluminescent substrate. • Crystal Violet solution: Stock: 2.5% Crystal violet in methanol, filtered and kept at ambient temperature. The working solution: dilute the stock 1:20 with PBS immediately before use. • 10% SDS: working solution: 5% SDS (sodium dodecylsulfate), diluted in PBS Methods: Day 1:
A 96 well TC (tissue culture treated) plate was coated with 10 μg/mL poly-L-Lysine at 37° C. for 30 min, washed twice with PBS, and air-dried for 5 minutes before cells were added. Hela cells were seeded at 10,000 cells/well and the cells were starved in 100 μL starvation medium containing Axl/Fc for 24 hrs.
The cells were pre-treated with test compounds by adding 100 μL of 2× test compound to the starvation medium on the cells. The cells were incubated at 37° C. for 1 hr before stimulation.
The cells were stimulated by Axl-antibody cross-linking as follows: A 5×1st/2nd Axl antibody mixture was made (37.5 μg/mL 1st/100 μg/mL 2nd) in starvation medium and nutated at 4° C. with thorough mixing for 1-2 hours for clustering. The resulting mix was warmed to 37° C. 50 μL of 5×Axl 1st/2nd of antibody cluster was added to the cells and the cells were incubated at 37° C. for 5 min.
After 5 minutes stimulation, the plate was flicked to remove medium and the plate was tapped onto paper towels. Formaldehyde (4.0% in PBS, 100 μL) was added to fix the cells and the cells were incubated at ambient temperature for 20 min without shaking.
The cells were washed with a plate washer buffer to remove the formaldehyde solution. The plate was flicked to removed excess wash buffer and tapped onto paper towels. Quenching buffer (100 μL) was added to each well and the cells were incubated at ambient temperature for 20 minutes without shaking.
The cells were washed with a plate washer buffer to remove the quenching buffer. Blocking buffer (100 μL) was added and the cells were incubated at ambient temperature for at least an hour with gentle shaking.
The cells were washed with a plate washer buffer and diluted primary antibody (50 μL) was added to each well (blocking buffer was added to the negative control wells instead). The plates were incubated overnight at 4° C. with gentle shaking.
The wash buffer was removed, diluted secondary antibody (100 μL) was added, and the cells were incubated at ambient temperature for 1 hour with gentle shaking. […]

SMILES	IC50 [nM]
CN1CCN(c2ccc(Nc3nccc(N[C@@]4(CCO)[C@@H](C(N)=O)C[C@H]5C[C@@H]4C5(C)C)n3)cc2F)CC1 [Compound 19, (1R,2R,3S,5R)-2-(2-(3-fluoro-4-(4-methylpiperazin-1-yl)phenylamino)pyrimidin-4-ylamino)-2-(2-hydroxyethyl)-6,6-dimethylbicyclo[3.1.1]heptane-3-carboxamide]	> 20000
CC1(C)[C@H]2C[C@H](C(N)=O)[C@](C)(Nc3nc(Nc4ccc(OCCN5CCCC5)cc4)ncc3Cl)[C@@H]1C2 [Compound 29, (1R,2R,3S,5R)-2-(5-chloro-2-(4-(2-(pyrrolidin-1-yl)ethoxy)phenylamino)pyrimidin-4-ylamino)-2,6,6-trimethylbicyclo[3.1.1]heptane-3-carboxamide]	< 1000
CC1(C)[C@H]2C[C@H](C(N)=O)[C@](C)(Nc3nc(Nc4ccc(OCCN5CCCC5)c(F)c4)ncc3Cl)[C@@H]1C2 [Compound 30, (1R,2R,3S,5R)-2-(5-chloro-2-(3-fluoro-4-(2-(pyrrolidin-1-yl)ethoxy)phenylamino)pyrimidin-4-ylamino)-2,6,6-trimethylbicyclo[3.1.1]heptane-3-carboxamide]	< 1000
CNC(=O)[C@H]1C[C@H]2C[C@H](C2(C)C)[C@@]1(C)Nc1nc(Nc2ccc(N3CCC(N4CCN(C)CC4)CC3)c(F)c2)ncc1Cl [Compound 31, (1R,2R,3S,5R)-2-(5-chloro-2-(3-fluoro-4-(4-(4-methylpiperazin-1-yl)piperidin-1-yl)phenylamino)pyrimidin-4-ylamino)-N,2,6,6-tetramethylbicyclo[3.1.1]heptane-3-carboxamide]	< 1000
CCN(CC)C1CCN(c2ccc(Nc3ncc(Cl)c(N[C@@]4(C)[C@@H](C(=O)NC)C[C@H]5C[C@@H]4C5(C)C)n3)cc2F)CC1 [Compound 32, (1R,2R,3S,5R)-2-(5-chloro-2-(3-fluoro-4-(4-(diethylamino)piperidin-1-yl)phenylamino)pyrimidin-4-ylamino)-N,2,6,6-tetramethylbicyclo[3.1.1]heptane-3-carboxamide]	< 1000
CNC(=O)[C@H]1C[C@H]2C[C@H](C2(C)C)[C@@]1(C)Nc1nc(Nc2ccc(OCCN(C)C3CCCC3)cc2)ncc1Cl [Compound 33, (1R,2R,3S,5R)-2-(5-chloro-2-(4-(2-((cyclopentyl)(methyl)amino)ethoxy)phenylamino)pyrimidin-4-ylamino)-N,2,6,6-tetramethylbicyclo[3.1.1]heptane-3-carboxamide]	< 1000
CNC(=O)[C@H]1C[C@H]2C[C@H](C2(C)C)[C@@]1(C)Nc1nc(Nc2ccc(N3CCC(F)(F)CC3)c(Cl)c2)ncc1F [Compound 34, (1R,2R,3S,5R)-2-(5-fluoro-2-(3-chloro-4-(4,4-difluoropipendin-1-yl)phenylamino)pyrimidin-4-ylamino)-N,2,6,6-tetramethylbicyclo[3.1.1]heptane-3-carboxamide]	> 20000
CNC(=O)[C@H]1C[C@H]2C[C@H](C2(C)C)[C@@]1(C)Nc1nc(Nc2ccc(N3CCC(F)(F)CC3)c(F)c2)ncc1F [Compound 35, (1R,2R,3S,5R)-2-(5-fluoro-2-(3-fluoro-4-(4,4-difluoropiperidin-1-yl)phenylamino)pyrimidin-4-ylamino)-N,2,6,6-tetramethylbicyclo[3.1.1]heptane-3-carboxamide]	> 20000
CNC(=O)[C@H]1C[C@H]2C[C@H](C2(C)C)[C@@]1(C)Nc1nc(Nc2ccc(N3CCN(S(C)(=O)=O)CC3)c(Cl)c2)ncc1F [Compound 36, (1R,2R,3S,5R)-2-(5-fluoro-2-(3-chloro-4-(4-methylsulfonylpiperazin-1-yl)phenylamino)pyrimidin-4-ylamino)-N,2,6,6-tetramethylbicyclo[3.1.1]heptane-3-carboxamide]	1000 to 10000

same assay, conditions: Table 2, formula (Ib); Hela cells, Axl antibody cross-linking stimulation, phospho-Akt chemiluminescence normalized to relative cell number

SMILES	IC50 [nM]
CNC(=O)[C@@H]1C[C@@H]2C[C@@H](C2(C)C)[C@]1(C)Nc1nc(Nc2ccc(N3CCOCC3)cc2)ncc1Cl [Compound 21, (1S,2S,3R,5S)-2-(5-chloro-2-(4-morpholinophenylamino)pyrimidin-4-ylamino)-N,2,6,6-tetramethylbicyclo[3.1.1]heptane-3-carboxamide]	1000 to 10000
CNC(=O)[C@@H]1C[C@@H]2C[C@@H](C2(C)C)[C@]1(C)Nc1nc(Nc2ccc(OCCN3CCCC3)cc2)ncc1Cl [Compound 22, (1S,2S,3R,5S)-2-(5-chloro-2-(4-(2-(pyrrolidin-1-yl)ethoxy)phenylamino)pyrimidin-4-ylamino)-N,2,6,6-tetramethylbicyclo[3.1.1]heptane-3-carboxamide]	> 20000
CNC(=O)[C@@H]1C[C@@H]2C[C@@H](C2(C)C)[C@]1(C)Nc1nc(Nc2ccc(OCCN3CCCC3)c(F)c2)ncc1Cl [Compound 23, (1S,2S,3R,5S)-2-(5-chloro-2-(3-fluoro-4-(2-(pyrrolidin-1-yl)ethoxy)phenylamino)pyrimidin-4-ylamino)-N,2,6,6-tetramethylbicyclo[3.1.1]heptane-3-carboxamide]	1000 to 10000

same assay, conditions: Table 3, formula (Ic); Hela cells, Axl antibody cross-linking stimulation, phospho-Akt chemiluminescence normalized to relative cell number

SMILES	IC50 [nM]
CNC(=O)[C@H]1C[C@H]2C[C@H](C2(C)C)[C@@]1(C)Nc1nc(Nc2ccc3c(c2)OCC(=O)N3)ncc1Cl [Compound 28, (1R,2R,3S,5R)-2-(5-chloro-2-(3-oxo-3,4-dihydro-2H-benzo[b][1,4]oxazin-7-ylamino)pyrimidin-4-ylamino)-N,2,6,6-tetramethylbicyclo[3.1.1]heptane-3-carboxamide]	> 20000

same assay, conditions: Table 4, formula (Id); Hela cells, Axl antibody cross-linking stimulation, phospho-Akt chemiluminescence normalized to relative cell number

SMILES	IC50 [nM]
CNC(=O)[C@H]1C[C@H]2C[C@H](C2(C)C)[C@@]1(C)Nc1nc(Nc2ccc3[nH]ccc3c2)ncc1Cl [Compound 26, (1R,2R,3S,5R)-2-(2-(1H-indol-5-ylamino)-5-chloropyrimidin-4-ylamino)-N,2,6,6-tetramethylbicyclo[3.1.1]heptane-3-carboxamide]	1000 to 10000
CNC(=O)[C@H]1C[C@H]2C[C@H](C2(C)C)[C@@]1(C)Nc1nc(Nc2ccc3c(c2)CCN3CCN(C)C)ncc1Cl [Compound 27, (1R,2R,3S,5R)-2-(5-chloro-2-(1-(2-(dimethylamino)ethyl)indolin-5-ylamino)pyrimidin-4-ylamino)-N,2,6,6-tetramethylbicyclo[3.1.1]heptane-3-carboxamide]	< 1000
